Patent publication US8003811B2, “Nitric oxide donor compounds” (Nicox S.A., priority 2008, dated 2011)

What was measured:
[1] = test system: isolated rabbit thoracic aorta preparations; test: Assay on vascular tone: vasorelaxation in isolated aortic rings precontracted with noradrenaline; format: cell-based; details: for EC50: Oryctolagus cuniculus, read-out: EC50 (μM) ± sem
Method: The ability of the compounds of the invention to induce vasorelaxation in comparison to precursor compounds, was tested in vitro in isolated rabbit thoracic aorta preparations (Wanstall J. C. et al., Br. J. Pharmacol., 134:463-472, 2001). Male New Zealand rabbits were anaesthetized with thiopental-Na (50 mg/kg, iv), sacrificed by exsanguinations and then the thorax was opened and the aorta dissected. Aortic ring preparations (4 mm in length) were set up in physiological salt solution (PSS) at 37° C. in small organ chambers (5 ml). The composition of PSS was (mM): NaCl 130, NaHCO3 14.9, KH2PO4 1.2, MgSO4 1.2, HEPES 10, […] (95% O2/5% CO2; pH 7.4). Each ring was mounted under 2 g passive tension. Isometric tension was recorded with a Grass transducer (Grass FT03) attached to a BIOPAC MP150 System. Preparations were allowed to equilibrate for 1 h, and then contracted submaximally with noradrenaline (NA, 1 μM) and, when the contraction was stable, acetylcholine (ACh, 10 μM) was added. A relaxant response to ACh indicated the presence of a functional endothelium. […] When a stable precontraction was reached, a cumulative concentration-response curve to either of the vasorelaxant agents was obtained in the presence of a functional endothelium. Each arterial ring was exposed to only one combination of inhibitor and vasorelaxant. Moreover, the effect of the soluble guanylyl cyclase inhibitor ODQ (1-H-(1,2,4)-oxadiazol(4,3-a)quinoxalin-1-one) on vasorelaxation elicited by the compounds was examined preincubating the aortic rings with ODQ (10 μM) for 20 min.
Responses to relaxing agents are expressed as a percentage of residual contraction and plotted against concentration of test compound. EC50 values (where EC50 is the concentration producing 50% of the maximum relaxation to the test compound) were interpolated from these plots. During the experimental period, the plateau obtained with NA was stable without significant spontaneous loss of contraction in the aortic rings.
Furthermore, in experiments performed in the presence of ODQ (10 μM), the vasorelaxant responses to tested compounds were inhibited.

[2] = test system: Human Embryonic Kidney (HEK293) cell; test: cGMP accumulation assay; format: cell-based; details: intracellular cGMP, HEK293 cells, 30 min, with L-NAME, IBMX 100 μM and BAY 41-2272 1 μM
Method: The ability of the compounds of the invention to increase intracellular cGMP in comparison to vehicle was tested in vitro in Human Embryonic Kidney (HEK293) cell preparations. The method followed was as that reported in literature with minor modifications (Ongini et al., PNAS 2004; 101(22):8497-502. Ronchetti et al., Eur J. Pharmacol. 2006; 532(1-2):162-9).
Briefly, HEK293 cells were washed once with Hank's Balance Salt Solution (HESS) supplemented with HEPES (10 mM), MgCl2 (5 mM) and 0.05% ascorbic acid. Then they were pre-incubated for 20 min with a nitric oxide synthase inhibitor, N-nitro-L-arginine methyl ester (L-NAME) (300 μM) so to lower endogenous NO production. The cells were then exposed for 30 min to either vehicle (DMSO 1%) or increasing concentrations of test compounds (up to 100 μM) in presence of the phosphodiesterase inhibitor, 3-isobutyl-1-methylxanthine (IBMX, 100 μM) and the NO-independent activator/modulator of soluble guanylyl-cyclase, BAY 41-2272 (1 μM). The reaction was ended by the removal of the incubating buffer and the addition of 50 μl/well of 100% ice-cold ethanol. The plate was then dried under hot air steam and the cell residues dissolved, extracted and analysed using commercially available cyclic GMP enzyme immunoassay kit (Cayman Chemical, Ann Arbor, Mich., U.S.A.). Data obtained with the compounds of the present invention, expressed as % of vehicle at their respective maximal concentration (100 μM), are reported in Table 2.

[3] = test system: conscious spontaneously hypertensive rats (SHRs); test: Assay for antihypertensive activity (in vivo), telemetry; design: species or system rat; details: for Δ SBP in SHR (mmHg) 2-6 hrs / Δ SBP in SHR (mmHg) 21-24 hrs / Δ SBP in SHR (mmHg) 25-48 hrs / Δ SBP in SHR (mmHg) 12 hrs: delta versus own baseline
Method: Assay for Antihypertensive Activity (In Vivo)
The ability of the compounds of the invention to decrease blood pressure was evaluated in conscious spontaneously hypertensive rats (SHRs). SHRs (250-300 g) received a single oral dose of tested compounds. Systolic blood pressure (SBP) and heart rate were monitored by telemetry for […] after dosing. SBP was evaluated before (baseline) and at different time points (i.e. 2-6, 12, 21-24, 25-48 hours) following treatment by oral administration of the compounds. The data were processed both as the absolute value or as a delta between the absolute value and its own baseline.
The Dataquest IV telemetry system (Data Sciences International) was used for measurement of systolic pressure, diastolic pressure, mean arterial pressure, heart rate, and motor activity. The monitoring system consists of a transmitter (radio frequency transducer model TA11PA), receiver panel, consolidation matrix, and personal computer with accompanying software. Before the device was implanted, calibrations were verified to be accurate within ±3 mmHg. Rats were anesthetized with ketamine/xylazine/acepromazine, and the flexible catheter of the transmitter was surgically secured in the abdominal aorta just below the renal arteries. The transmitter was sutured subcutaneously. Rats were housed in individual cages after the operation. Each cage was placed over the receiver panel that was connected to the personal computer for data acquisition. The rats were unrestrained and free to move within their cages. Hemodynamic data were sampled every 2 minutes for 10 seconds.

[4] = vasorelaxation of rabbit aortic rings precontracted with noradrenaline 1 μM, functional endothelium

Structure (SMILES)	EC50 [1, 4]	% of vehicle (mean ± sem at 100 μM) [2]	other results
O=C(CCCC(CO[N+](=O)[O-])O[N+](=O)[O-])O[C@@H]1CO[C@H]2[C@@H]1OC[C@H]2O (stereo partly drawn) [Example 1, (3R,3aR,6R,6aR)-6-hydroxyhexahydrofuro[3,2-b]furan-3-yl 5,6-bis(nitrooxy)hexanoate]	0.11 ± 0.03 µM	1029.6 ± 80.2 % of vehicle	BP lowering compared to precursor compound (isomannide) ([3]; SHR, single oral dose, result in words): BP lowering with extended peak effect and duration of action; Δ SBP in SHR (mmHg) 2-6 hrs ([3]; single oral dose 4.4 mpk): −13 mmHg; Δ SBP in SHR (mmHg) 21-24 hrs ([3]; single oral dose 4.4 mpk): −20 mmHg; Δ SBP in SHR (mmHg) 25-48 hrs ([3]; single oral dose 4.4 mpk): −16 mmHg; Δ SBP in SHR (mmHg) 12 hrs ([3]; single oral dose 4.4 mpk): −16 mmHg
O=C(CCCCCO[N+](=O)[O-])O[C@@H]1CO[C@H]2[C@@H]1OC[C@H]2OC(=O)CCCCCO[N+](=O)[O-] [Example 2, (3R,3aR,6R,6aR)-hexahydrofuro[3,2-b]furan-3,6-diyl bis(6-(nitrooxy)hexanoate)]	3.1 ± 0.9 µM	1082.67 ± 163.4 % of vehicle	
O=C(CCCCCO[N+](=O)[O-])O[C@@H]1CO[C@H]2[C@@H]1OC[C@H]2O [Example 3, (3R,3aR,6R,6aR)-6-hydroxyhexahydrofuro[3,2-b]furan-3-yl 6-(nitrooxy)hexanoate]	2.5 ± 0.6 µM	677.83 ± 79.6 % of vehicle	
O=C(CCC[C@@H](CO[N+](=O)[O-])O[N+](=O)[O-])O[C@@H]1CO[C@H]2[C@@H]1OC[C@H]2O [Example 4]	0.11 ± 0.02 µM	986.3 ± 90.0^ % of vehicle	
O=C(CCC[C@H](CO[N+](=O)[O-])O[N+](=O)[O-])O[C@@H]1CO[C@H]2[C@@H]1OC[C@H]2O [Example 5, (R)-((3R,3aR,6R,6aR)-6-hydroxyhexahydrofuro[3,2-b]furan-3-yl) 5,6-bis(nitrooxy)hexanoate]		668 ± 64.7 % of vehicle	
O=[N+]([O-])OCC(CCCCO[C@@H]1CO[C@H]2[C@@H]1OC[C@H]2O)O[N+](=O)[O-] (stereo partly drawn) [Example 6, 6-((3R,3aR,6R,6aR)-6-hydroxyhexahydrofuro[3,2-b]furan-3-yloxy)hexane-1,2-diyl dinitrate]	0.91 ± 0.33 µM	1620 ± 205.0 % of vehicle	
O=C(O[C@@H]1CO[C@H]2[C@@H]1OC[C@H]2O)N1CCC(O[N+](=O)[O-])CC1 [Example 7, (3R,3aR,6R,6aR)-6-hydroxyhexahydrofuro[3,2-b]furan-3-yl 4-(nitrooxy)piperidine-1-carboxylate]	4.4 ± 1.9 µM		
CC(C)(CCOC(=O)O[C@@H]1CO[C@H]2[C@@H]1OC[C@H]2O)CC(CO[N+](=O)[O-])O[N+](=O)[O-] (stereo partly drawn) [Example 8, 3,3-dimethyl-5,6-bis(nitrooxy)hexyl (3R,3aR,6R,6aR)-6-hydroxyhexahydrofuro[3,2-b]furan-3-yl carbonate]	0.06 ± 0.01 µM	564 ± 59.0 % of vehicle	
O=C(CCOCC(CO[N+](=O)[O-])O[N+](=O)[O-])O[C@@H]1CO[C@H]2[C@@H]1OC[C@H]2O (stereo partly drawn) [Example 13, (3R,3aR,6R,6aR)-6-hydroxyhexahydrofuro[3,2-b]furan-3-yl 3-(2,3-bis(nitrooxy)propoxy)propanoate]	0.1 ± 0.03 µM	683 ± 86.3 % of vehicle	
O[C@@H]1CO[C@H]2[C@@H]1OC[C@H]2O [Isomannide, 1,4:3,6-dianhydro-D-mannitol, reference compound]			relaxation (concentration-response curve) ([1]; rabbit aortic rings precontracted with noradrenaline, result in words): does not produce relaxation at any of the concentration tested; EC50 (μM) ± sem [1, 4]: no effect; Δ SBP in SHR (mmHg) 2-6 hrs ([3]; single oral dose 2.4 mpk): −3 mmHg; Δ SBP in SHR (mmHg) 21-24 hrs ([3]; single oral dose 2.4 mpk): −6 mmHg; Δ SBP in SHR (mmHg) 25-48 hrs ([3]; single oral dose 2.4 mpk): −6 mmHg; Δ SBP in SHR (mmHg) 12 hrs ([3]; single oral dose 2.4 mpk): −9 mmHg
